Results on 23 compounds are retold here after patent US11065253B2, “Arylquinazolines” (Merck Patent GmbH, priority 2013, dated 2021).

Where two headings read alike, the source gives them in different places.

In data set [1] the test system is phospho-serine 2056 DNA-PK in HCT116 cells. The experiment in a line: DNA-PK phosphorylation at serine 2056 (cellular), ELISA in bleomycin-treated HCT116 cells. In kind it is cell-based. To be noted: read-out: IC50 pDNA-PK. The method in brief: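 HCT116 cells were treated with 10 μM bleomycin plus test compounds for six hours at 37 °C. Phospho-Ser2056 DNA-PK measured by chemiluminescent ELISA, normalised to total DNA-PKcs signal; DMSO control as blank.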

A further data set deals with Kv11.1 (hERG) channel (Homo sapiens (Human), UniProt Q12809). The experiment in a line: Kv11.1 ion channel binding assay (Predictor hERG fluorescence polarisation). To be noted: class symbol marked with asterisk (*). On the procedure: D) Kv11.1 Ion Channel Binding Assay
Sequence of Kv11.1 (hERG) channel (Q12809 whole entry): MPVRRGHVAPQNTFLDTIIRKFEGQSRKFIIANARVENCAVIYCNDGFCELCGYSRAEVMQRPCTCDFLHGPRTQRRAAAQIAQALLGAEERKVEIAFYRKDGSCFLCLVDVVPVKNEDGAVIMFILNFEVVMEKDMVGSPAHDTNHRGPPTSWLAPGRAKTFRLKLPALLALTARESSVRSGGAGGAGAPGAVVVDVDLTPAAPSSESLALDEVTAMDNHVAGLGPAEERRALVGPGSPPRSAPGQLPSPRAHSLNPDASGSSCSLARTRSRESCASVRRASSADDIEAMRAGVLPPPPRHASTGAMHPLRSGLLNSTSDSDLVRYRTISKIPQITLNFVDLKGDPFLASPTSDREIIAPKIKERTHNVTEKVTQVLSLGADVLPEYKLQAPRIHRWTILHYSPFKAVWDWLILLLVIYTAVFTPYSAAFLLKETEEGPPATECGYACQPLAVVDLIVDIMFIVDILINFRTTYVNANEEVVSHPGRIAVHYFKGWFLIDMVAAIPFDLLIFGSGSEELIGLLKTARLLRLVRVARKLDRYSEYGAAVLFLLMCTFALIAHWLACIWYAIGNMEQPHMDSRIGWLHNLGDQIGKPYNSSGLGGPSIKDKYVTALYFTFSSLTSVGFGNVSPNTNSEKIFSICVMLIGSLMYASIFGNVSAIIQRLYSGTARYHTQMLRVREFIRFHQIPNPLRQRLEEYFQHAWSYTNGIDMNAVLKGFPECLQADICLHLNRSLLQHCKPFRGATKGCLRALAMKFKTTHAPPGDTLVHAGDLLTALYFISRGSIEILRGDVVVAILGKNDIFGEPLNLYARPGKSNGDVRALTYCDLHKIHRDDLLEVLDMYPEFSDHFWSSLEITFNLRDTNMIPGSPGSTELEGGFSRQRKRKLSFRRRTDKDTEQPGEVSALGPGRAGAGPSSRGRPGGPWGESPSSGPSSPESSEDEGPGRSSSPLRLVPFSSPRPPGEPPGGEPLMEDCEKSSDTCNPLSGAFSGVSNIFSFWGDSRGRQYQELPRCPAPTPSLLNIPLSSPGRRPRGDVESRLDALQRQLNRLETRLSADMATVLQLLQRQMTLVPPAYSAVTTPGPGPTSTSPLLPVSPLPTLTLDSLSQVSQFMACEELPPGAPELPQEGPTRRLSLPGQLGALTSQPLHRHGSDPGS
Kv11.1 (hERG=human ether a go-go related […]) is a cardiac K^+ channel which should if possible not interact with the test substances. This interaction is determined quantitatively with the aid of the Predictor™ hERG Fluorescence Polarizations (FP) Assays from Life Technologies. In the case of this assay principle, cardiomyocyte cell membranes having a certain proportion of Kv11.1 channels are isolated. A dye-labelled Kv11.1 binding partner gives a high fluorescence polarisation signal by interaction with the Kv11.1. In the case of displacement of the dye, a reduction in the fluorescence polarisation signal occurs.
The assay is carried out automatically as follows: 15 nl of the test substances (highest concentration: 10 mM, 10 concentrations: dilution factors 1:3.16, DMSO) are transferred into an empty microtitre plates having 384 wells by means of an acoustic pipetter. 3 μl of the isolated membranes are subsequently added. Membranes and test substances are incubated at 22° C. for 15 min (+/−5 min). In the next step, the dye-labelled binding partner is added, followed by incubation at 22° C. After incubation for two hours, the measurement of the fluorescence polarisation is carried out on an Envision multimode Reader. Measured raw data are standardised with the aid of Genedata Assay Analyzer. The IC50 and % effect values are calculated in Genedata Condoseo.

[2] abbreviates: Homo sapiens, HCT-116, phospho-serine 2056 DNA-PK, bleomycin-treated HCT116 cells.
[3] abbreviates: phospho-serine 2056 DNA-PK, bleomycin-treated HCT116 cells.

For the compound `COc1nnc(Cl)cc1C(O)c1ccc(F)c(-c2ncnc3cc(N4CCOCC4)ccc23)c1` (centres unmarked) [Example 286, (6-Chloro-3-methoxy-pyridazin-4-yl)-[4-fluoro-3-(7-morpholin-4-yl-quinazolin-4-yl)-phenyl]methanol (Ena 1)], the IC50 in data set [1] (setting [2]) lay in the range of 5 to 10 µM. In addition, the “Ki [Kv1.11 hERG]” value on Kv11.1 (hERG) channel is given as “A*”.

Turning to `COc1nccnc1C(O)c1ccc(F)c(-c2ncnc3cc(N4CCOCC4)cc(F)c23)c1` (single isomer, unassigned) [Example 253, [4-Fluoro-3-(5-fluoro-7-morpholin-4-yl-quinazolin-4-yl)-phenyl]-(3-methoxy-pyrazin-2-yl)-methanol], the “Ki [Kv1.11 hERG]” value at Kv11.1 (hERG) channel is listed as “A*”.

As for `COc1nccnc1C(O)c1cc(-c2ncnc3cc(N4CCOCC4)cc(F)c23)c(F)cc1Cl` (centres unmarked) [Example 250, [2-Chloro-4-fluoro-5-(5-fluoro-7-morpholin-4-yl-quinazolin-4-yl)-phenyl]-(3-methoxy-pyrazin-2-yl)-methanol], the IC50 in data set [1] (setting [3]) was less than 0.5 µM. Further, the “Ki [Kv1.11 hERG]” value at Kv11.1 (hERG) channel was “A*”.

`OC(c1ccc(F)c(-c2ncnc3cc(N4CCOCC4)ccc23)c1)c1nccn2ncnc12` (centres unmarked) [Example 279, [4-Fluoro-3-(7-morpholin-4-yl-quinazolin-4-yl)-phenyl]-[1,2,4]-triazolo[1,5-a]-pyrazin-8-ylmethanol]: the IC50 in data set [1] (setting [2]) lay in the range of 5 to 10 µM. Further, the “Ki [Kv1.11 hERG]” value at Kv11.1 (hERG) channel is “A*”.

In the case of `COc1ccc(C(C(N)=O)c2cc(-c3ncnc4cc(N5CCOCC5)sc34)c(F)cc2Cl)nn1` (centres unmarked) [Example 272, 2-[2-Chloro-4-fluoro-5-(6-morpholin-4-yl-thieno[3,2-d}-pyrimidin-4-yl)-phenyl]-2-(6-methoxy-pyridazin-3-yl)acetamide], the IC50 in data set [1] (setting [2]) fell in the range of 0.5 to 5 µM. At Kv11.1 (hERG) channel, the “Ki [Kv1.11 hERG]” value is listed as “A*”.

Regarding `Cc1nccnc1C(O)c1ccc(F)c(-c2ncnc3cc(N4CCOCC4)cc(F)c23)c1` (centres unmarked) [Example 268, [4-Fluoro-3-(5-fluoro-7-morpholin-4-yl-quinazolin-4-yl)-phenyl]-(3-methyl-pyrazin-2-yl)-methanol], the IC50 in data set [1] (setting [2]) is less than 0.5 µM. On Kv11.1 (hERG) channel, the “Ki [Kv1.11 hERG]” value is “A*”.

As for `NC(=O)C(c1ccc(F)c(-c2ncnc3cc(N4CCOCC4)ccc23)c1)c1nccn2ncnc12` (centres unmarked) [Example 280, 2-[4-Fluoro-3-(7-morpholin-4-yl-quinazolin-4-yl)-phenyl]-2-[1,2,4]-triazolo[1,5-a]-pyrazin-8-yl-acetamide], in data set [1] (setting [2]), the IC50 was 10 to 30 µM. Also, the “Ki [Kv1.11 hERG]” value at Kv11.1 (hERG) channel is given as “A*”.

For `[2H]C1([2H])OC([2H])([2H])C([2H])([2H])N(c2ccc3c(-c4cc(C(O)c5ccc(OC)nn5)c(Cl)cc4F)ncnc3c2)C1([2H])[2H]` (centres unmarked) [Example 262, [2-Chloro-4-fluoro-5-[7-(2,2,3,3,5,5,6,6-octadeuterio-morpholin-4-yl)quinazolin-4-yl]phenyl]-(6-methoxypyridazin-3-yl)methanol], in data set [1] (setting [3]), the IC50 is less than 0.5 µM. For the same compound, the “Ki [Kv1.11 hERG]” value on Kv11.1 (hERG) channel is “A*”.

Turning to `COc1ccc(C(O)c2ccc(F)c(-c3ncnc4cc(N5CCOCC5)c(F)cc34)c2)nn1` (centres unmarked) [Example 282, [4-Fluoro-3-(6-fluoro-7-morpholin-4-yl-quinazolin-4-yl)-phenyl]-(6-methoxy-pyridazin-3-yl)-methanol], the concentration for half-maximal inhibition (IC50) in data set [1] (setting [2]) lay in the range of 10 to 30 µM. The “Ki [Kv1.11 hERG]” value at Kv11.1 (hERG) channel is recorded as “A*”.

In the case of `CNC(=O)C(c1ccc(F)c(-c2ncnc3cc(N4CCOCC4)ccc23)c1)c1ncccc1Cl` (centres unmarked) [Example 230, 2-(3-Chloro-pyridin-2-yl)-2-[4-fluoro-3-(7-morpholin-4-yl-quinazolin-4-yl)-phenyl]-N-methyl-acetamide], the IC50 in data set [1] (setting [3]) lay within 5 to 10 µM. Further, the “Ki [Kv1.11 hERG]” value on Kv11.1 (hERG) channel was “B*”.

As to `COc1ccc(C(O)c2cc(-c3ncnc4cc(N5CCOCC5)cc(F)c34)c(F)cc2Cl)nn1` (single isomer, unassigned) [Example 263, [2-Chloro-4-fluoro-5-(5-fluoro-7-morpholin-4-yl-quinazolin-4-yl)-phenyl]-(6-methoxy-pyridazin-3-yl)-methanol], the “Ki [Kv1.11 hERG]” value on Kv11.1 (hERG) channel is recorded as “A*”.

Turning to `Cc1nccnc1C(O)c1ccc(F)c(-c2ncnc3cc(N4CCOCC4)sc23)c1` (centres unmarked) [Example 246, [4-Fluoro-3-(6-morpholin-4-yl-thieno[3,2-d}-pyrimidin-4-yl)-phenyl]-(3-methyl-pyrazin-2-yl)-methanol], the “Ki [Kv1.11 hERG]” value on Kv11.1 (hERG) channel is recorded as “A*”.

`COC(c1ccc(F)c(-c2ncnc3cc(N4CCOCC4)ccc23)c1)c1nccnc1C` (centres unmarked) [Example 352]: the “Ki [Kv1.11 hERG]” value at Kv11.1 (hERG) channel was “A*”.

For `NC(=O)C(c1ccc(F)c(-c2ncnc3cc(N4CCOCC4)ccc23)c1)c1nncc2ccsc12` (centres unmarked) [Example 284, 2-[4-Fluoro-3-(7-morpholin-4-yl-quinazolin-4-yl)-phenyl]-2-thieno-[2,3-d}pyridazin-7-yl-acetamide], the “Ki [Kv1.11 hERG]” value on Kv11.1 (hERG) channel is “A*”.

In the case of `NC(=O)C(c1cc(-c2ncnc3cc(N4CCOCC4)ccc23)c(F)cc1F)c1nccn2cccc12` (centres unmarked) [Example 348, 2-[2,4-Difluoro-5-(7-morpholin-4-yl-quinazolin-4-yl)-phenyl]-2-pyrrolo-[1,2-a]pyrazin-1-yl-acetamide], in data set [1] (setting [2]), the IC50 fell in the range of 0.5 to 5 µM.

`OC(c1ccc(F)c(-c2ncnc3cc(N4CCOCC4)sc23)c1)c1nccs1` (racemic) [Example 144, [4-Fluoro-3-(6-morpholin-4-yl-thieno[3,2-d}-pyrimidin-4-yl)-phenyl]thiazol-2-yl-methanol]: the IC50 in data set [1] (Homo sapiens, HCT-116, phospho-serine 2056 DNA-PK, bleomycin-treated HCT116 cells, class symbols A-D) is 0.5 to 5 µM.

Turning to `O=c1[nH]nc(C(O)c2ccc(F)c(-c3ncnc4cc(N5CCOCC5)ccc34)c2)c2sccc12` (centres unmarked) [Example 337, 7-[[4-Fluoro-3-(7-morpholino-quinazolin-4-yl)-phenyl]hydroxy-methyl]-5H-thieno-[2,3-d}pyridazin-4-one], the IC50 in data set [1] (setting [2]) is 0.5 to 5 µM.

For the compound `OC(c1ccc(F)c(-c2ncnc3cc(N4CCOCC4)ccc23)c1)c1cnccn1` (centres unmarked) [Example 33, [4-Fluoro-3-(7-morpholin-4-yl-quinazolin-4-yl)phenyl]-pyrazin-2-ylmethanol], the IC50 in data set [1] (Homo sapiens, HCT-116, 6 h, cellular, HCT116 cells, 10 μM bleomycin, six hours) lay in the range of 10 to 30 µM.

For the compound `Oc1ncnc(C(O)c2cc(-c3ncnc4cc(N5CCOCC5)ccc34)ccc2Cl)c1Cl` (centres unmarked) [Example 330, 5-Chloro-6-{[2-chloro-5-(7-morpholin-4-yl-quinazolin-4-yl)-phenyl]hydroxy-methyl}pyrimidin-4-ol], the IC50 in data set [1] (setting [2]) was 10 to 30 µM.

In the case of `OC(c1cc(-c2ncnc3cc(N4CCOCC4)ccc23)c(F)cc1F)c1nncc2ccoc12` (centres unmarked) [Example 336, [2,4-Difluoro-5-(7-morpholin-4-yl-quinazolin-4-yl)-phenyl]furo[2,3-d}-pyridazin-7-yl-methanol], the half-inhibitory concentration (IC50) in data set [1] (setting [2]) was less than 0.5 µM.

With `OC(c1ccc(F)c(-c2ncnc3cc(N4CCOCC4)ccc23)c1)c1ncccc1OC(F)(F)F` (centres unmarked) [Example 475, [4-Fluoro-3-(7-morpholin-4-yl-quinazolin-4-yl)-phenyl]-(3-trifluoro-methoxypyridin-2-yl)-methanol], the IC50 in data set [1] (Homo sapiens, HCT-116, cellular DNA-PK phosphorylation at serine 2056, HCT116 cells) is less than 0.5 µM.

In the case of `COc1ccc(C(C(N)=O)c2cc(-c3ncnc4cc(N5CCOCC5)ccc34)c(F)cc2Cl)nn1` (centres unmarked) [Example 325, 2-[2-Chloro-4-fluoro-5-(7-morpholin-4-yl-quinazolin-4-yl)-phenyl]-2-(6-methoxypyridazin-3-yl)acetamide], in data set [1] (setting [3]), the IC50 lay in the range of 10 to 30 µM.

Regarding `Cn1c(C(O)c2cc(-c3ncnc4cc(N5CCOCC5)ccc34)ccc2Cl)cccc1=O` (centres unmarked) [Example 364, 6-{[2-Chloro-5-(7-morpholin-4-yl-quinazolin-4-yl)-phenyl]hydroxy-methyl}-1-methyl-1H-pyridin-2-one (Ena 1)], in data set [1] (setting [3]), the IC50 was less than 0.5 µM.
